Key:
[1] = biological target: T1, EP2-Subtyp des humanen PGE2-Rezeptors (Homo sapiens, UniProt P43116); assay: cAMP antagonism test (HTRF cAMP detection, PGE2-stimulated cells); type: cell-based; conditions: cAMP Antagonismustest, in presence of agonist PGE2; read-out: Antagonismus [IC50
T1 construct: host or cells: cells in a culture plate
From the text: Die Bindung von PGE2 an den EP2-Subtyp des humanen PGE2-Rezeptors induziert die Aktivierung membranständiger Adenylatzyklasen und führt zur Bildung von cAMP. In Gegenwart des Phosphodiesteraseinhibitors IBMX wird das durch diese Stimulation akkumulierte und mittels Zell-Lyse freigesetzte cAMP in einem kompetitiven Nachweisverfahren eingesetzt. In diesem Test konkurriert das cAMP im Lysat mit cAMP-XL665 um die Bindung eines Eu-Kryptat markierten Anti-cAMP Antikörpers.
Dabei entsteht in Abwesenheit von zellulärem cAMP ein maximales Signal, welches auf der Kopplung dieses Antikörpers an das cAMP-XL665 Molekül beruht. Dadurch entsteht nach Anregung bei 337 nm ein auf FRET (fluorescence resonance energy transfer) basierendes, langanhaltendes Emissionssignal bei 665 nm (und bei […]). Beide Signale werden in einem geeigneten Messgerät zeitlich versetzt, d.h. nach Abklingen der Hintergrundsfluoreszenz gemessen. Jegliche Erhöhung des durch Prostglandin-E2-Gabe bedingten niedrigen FRET-Signals (gemessen als Well-Ratio-Veränderung = Emission665nm/Emission620nm * 10000) zeigt die Wirkung von Antagonisten.
Die in einer Testplatte und 30 % DMSO vorgelegten Substanzlösungen (0.75 µl) wurden in 16 µl einer KRSB+IBMX-Stimulationslösung gelöst (1 X Krebs-Ringer Bicarbonate Buffer; Sigma-Aldrich # K-4002; inklusive 750 µM 3-Isobutyl-1-methylxanthine Sigma-Aldrich # I-7018), anschließend wurden 15 µl davon in eine medienfreie Zellkulturplatte überführt, die kurz zuvor mit KRSB gewaschen worden war.
Nach einer 30-minütigen Vorinkubation bei Raumtemperatur (RT) wurden 5 µl einer 4xPGE2 Lösung (11 nM) zugegeben und in Gegenwart des Agonisten für weitere 60 min bei RT inkubiert (Volumen: ∼ 20 µl), bevor die Reaktion anschließend durch Zugabe von 5 µl Lysispuffer gestoppt und für weitere 20 min bei RT inkubiert wurde (Volumen: ∼ 25 µl). Das Zell-Lysat wurde anschließend in eine Messplatte überführt und entsprechend den Herstellerangaben (cyclic AMP kit Cisbio International # 62AMPPEC) gemessen.

[2] = biological target: T1, EP2-Subtyp des humanen PGE2-Rezeptors; assay: cellular cAMP agonism test (without PGE2); type: cell-based
Kumulus-Eizell Komplexe = assay: cumulus expansion test in vitro; type: cell-based, Mäusen; conditions: competing with the natural agonist PGE2
From the text: In immaturen weiblichen Mäusen (Stamm : CD1 (ICR) von Charles River) wurde in einem Alter von 14 - 18 Tagen die Follikulogenese durch eine einmalige Gabe (intraperitoneal) von 10 I.E. PMSG (Pregnant Mare Serum Gonadotropine; Sigma G-4877, Lot 68H0909) induziert. 47 - 50 Stunden nach der Injektion wurden die Ovarien entnommen und die Kumulus-Eizell Komplexe entnommen. Der Kumulus Komplex ist in diesem Stadium noch nicht expandiert.
Die Kumulus-Eizell Komplexe wurden nun für 20-24 Stunden mit Prostaglandin E2 (PGE2) (0,3 µM), Vehikel Kontrolle (Ethanol) oder Testsubstanzen inkubiert. Medium: alpha- MEM Medium mit 0,1 mM IBMX, Pyruvate (0,23 mM) Glutamine (2 mM), Pen/Strep 100 IU/ml Pen. und 100 µg/ml Strep.) und HSA (8 mg/ml). Danach wurde die Kumulus Expansion durch die Einteilung in vier Stadien (nach Vanderhyden et al. Dev Biol. 1990 Aug;140(2):307-317) festgestellt. Tabelle 1: Beispiel für die biologische Wirksamkeit der erfindungsgemäßen Verbindungen (gemessen mittels cAMP Antagonismustest): […]

T1 sequence (P43116 whole entry): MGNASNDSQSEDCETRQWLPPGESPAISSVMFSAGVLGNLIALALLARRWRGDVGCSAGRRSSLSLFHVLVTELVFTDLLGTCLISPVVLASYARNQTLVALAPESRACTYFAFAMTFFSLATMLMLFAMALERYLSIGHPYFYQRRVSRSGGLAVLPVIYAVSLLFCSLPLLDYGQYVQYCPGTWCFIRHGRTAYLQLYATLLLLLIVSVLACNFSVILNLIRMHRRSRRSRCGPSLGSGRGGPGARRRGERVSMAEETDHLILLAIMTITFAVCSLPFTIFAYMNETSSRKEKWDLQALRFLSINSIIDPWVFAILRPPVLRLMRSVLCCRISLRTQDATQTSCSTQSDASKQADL

IC50 [1] [nM]	Structure (SMILES)	further results
–	CC(C)Oc1ccc2c(=O)c3cc(C(=O)O)ccc3oc2c1 [AH 6809, reference compound]	Unterdrückung der Kumulus Expansion (Kumulus-Eizell Komplexe; 100 - 200 µM): ca. 30%
700	COc1ccc(C(=O)NCCc2c(C)[nH]c3c(F)cc(F)cc23)cc1OC [Beispiel 3, N-[2-(5,7-Difluor-2-methyl-1H-indol-3-yl)-ethyl]-3,4-dimethoxy-benzamid]	–
71	Cc1[nH]c2c(F)c(F)ccc2c1CCNC(=O)c1cc2cc(Cl)ccc2[nH]1 [Beispiel 5, 5-Chlor-1H-indol-2-carbonsäure [2-(6,7-difluor-2-methyl-1H-indol-3-yl)-ethyl]-amid]	–
200	Cc1[nH]c2c(F)c(Cl)ccc2c1CCNC(=O)c1cc2cc(F)ccc2[nH]1 [Beispiel 6, 5-Fluor-1H-indol-2-carbonsäure [2-(6-chlor-7-fluor-2-methyl-1H-indol-3-yl)-ethyl]-amid]	–
1800	COc1ccc(C(=O)NCCc2c(C)[nH]c3c(F)cc(Br)c(C)c23)cc1OC [Beispiel 8, N-[2-(5-Brom-7-fluor-2,4-dimethyl-1H-indol-3-yl)-ethyl]-3,4-dimethoxy-benzamid]	–

Structure (SMILES)	IC50 [1] [nM]	further results
Cc1[nH]c2c(F)cc(Br)cc2c1CCNC(=O)c1cc2cc(F)ccc2[nH]1 [Beispiel 10, 5-Fluor-1H-indol-2-carbonsäure [2-(5-brom-7-fluor-2-methyl-1H-indol-3-yl)-ethyl]-amid]	82	Wirkung im zellulären Agonismustest [2]: keine Inhibition; Unterdrückung der Kumulus Expansion (Kumulus-Eizell Komplexe; 5 µM): ca. 75%

Reference: patent EP2149552A1, “5,6 substituted benzamide derivatives as modulators of EP2 receptors” (Bayer Schering Pharma Aktiengesellschaft, priority 2008, dated 2010)
